The results in this text go back to patent US10111831B2, “Chewable vehicle for mouth absorption” (TECHNOLOGIES KHLOROS INC., priority 2011, dated 2018).

The nature of data set [1]: Liberation of riboflavin from functional gel, passive vs artificial mastication. The class given is physicochemical. To be noted: Khlôros functional gel, 0.9% riboflavin, 10 ml H2O/gel, after 60 seconds, detection at 445 nm. How it is done:
• Material: • Khlôros functional gel (see examples I and II); • 0.9% Riboflavin; • Reactional media: 10 ml of H2O/gel; • Passive liberation of active ingredient (Riboflavin): no treatment on the gel; • Artificial mastication (active liberation): mimic the action of mastication →compression and soft shearing;
Detection of the liberation of riboflavin and conversion in mM by the spectroscopic evaluation at 445 nm.

A short description of data set [2]: Release of yohimbine from chewing gum masticated in water or artificial saliva. Type of data set: physicochemical. As to conditions: gum with Corynanthe yohimbe bark extract (8% yohimbine), artificially masticated 120 seconds in 10 ml, chromatography. How it is done:
• Chewing gums are prepared following example xx, containing a bark extract of Corynanthe yohimbe (containing 8% of yohimbine); • Gums are artificially masticated for 120 seconds in 10 ml of water or artificial saliva; • The quantity of released yohimbine is analysed by chromatography.

As for `Cc1cc2nc3c(=O)[nH]c(=O)nc-3n(C[C@H](O)[C@H](O)[C@H](O)CO)c2cc1C` [riboflavin, Riboflavin], the “liberation of riboflavin after artificial mastication compared to passive liberation” value in data set [1] stood at 23 times. For `COC(=O)[C@@H]1[C@H]2C[C@H]3c4[nH]c5ccccc5c4CCN3C[C@@H]2CC[C@@H]1O` [yohimbine], the “quantity of yohimbine released, masticated in saliva versus water” value in data set [2] is recorded as “more than 5 time”.
